The source made the active and inactive calls.
Experiments:
Assay type in all cases: functional, cell-based
HeLa = assay: Cytotoxicity against human HeLa cells assessed as reduction in cell viability incubated for 24 hrs by MTT assay
MCF7 = assay: Cytotoxicity against human MCF7 cells assessed as reduction in cell viability incubated for 24 hrs by MTT assay
HepG2 = assay: Cytotoxicity against human HepG2 cells assessed as reduction in cell viability incubated for 24 hrs by MTT assay

Measured: Activity

C=C(CO[C@@H]1O[C@H](CO[C@@H]2OC[C@H](O)[C@H](O)[C@H]2O)[C@@H](O)[C@H](O)[C@H]1O)[C@@H]1CC[C@@]2(C1)C(C)=CC(=O)C[C@H]2C
inactive: all assays above

C=C(CO)[C@@H]1CC[C@]2(C1)[C@@H](CO)C[C@@H](O)[C@H](O)[C@H]2C
inactive: all assays above

C=C(CO[C@@H]1O[C@H](CO)[C@@H](O)[C@H](O)[C@H]1O)[C@@H]1CC[C@@]2(C1)[C@H](C)[C@@H](O)[C@H](O)C[C@H]2C(OC)OC
inactive: all assays above

C=C(CO[C@@H]1O[C@H](CO)[C@@H](O)[C@H](O)[C@H]1O)[C@@H]1CC[C@]2(C1)[C@@H](C(OC)OC)C[C@@H](O)[C@H](O)[C@H]2C
inactive: all assays above

C=C(CO)[C@@H]1CC[C@]2(C1)[C@H](CO)C[C@@H](O)C[C@H]2C
inactive: all assays above

C=C(CO)[C@@H]1CC[C@]2(C1)[C@H](CO)C[C@@H](O)[C@H](O)[C@H]2C
inactive: all assays above
